The text below walks through data of patent US7902227B2, “C-7 isoxazolinyl quinolone / naphthyridine derivatives useful as antibacterial agents” (Janssen Pharmaceutica NV., priority 2008, dated 2011).

In brackets after ≈: the same amount, converted by molar mass.

Type in all cases: cell-based
For assay [1], the system named is strain D, fluoroquinolone-resistant clinical isolate of Streptococcus pneumoniae. In words: In vitro antibacterial activity (MIC), microdilution broth method (NCCLS), strain D. Particulars: read-out: In vitro Antibacterial Activity MIC, D. The method, then: (§1) Minimal inhibitory concentration (MIC) has been an indicator of in vitro antibacterial activity widely used in the art. The in vitro antimicrobial activity of representative compounds of the present invention was determined by the microdilution broth method following the test method from the National Committee for Clinical Laboratory Standards (NCCLS). This method is described in the NCCLS Document M7-A4, Vol. 17, No. 2, “Methods for Dilution Antimicrobial Susceptibility Test for Bacteria that Grow Aerobically—Fourth Edition”, which is incorporated herein by reference.
(§2) In this method two-fold serial dilutions of drug in cation adjusted Mueller-Hinton broth are added to wells in microdilution trays. The test organisms are prepared by adjusting the turbidity of actively growing broth cultures so that the final concentration of test organism after it is added to the wells is approximately 5×10^4 CFU/well.
(§3) Following inoculation of the microdilution trays, the trays are incubated at 35° C. for 16-20 hours and then read. […] The amount of growth in the wells containing the test compound is compared with the amount of growth in the growth-control wells (no test compound) used in each tray. As set forth in Table 4, representative compounds of the present invention were tested against a variety of pathogenic bacteria resulting in a range of activities depending on the organism tested.

For assay [2], the system named is strain B, fluoroquinolone-resistant clinical isolate of Streptococcus pneumoniae. The experiment in a line: In vitro antibacterial activity (MIC), microdilution broth method (NCCLS), strain B. The following applies: read-out: In vitro Antibacterial Activity MIC, B. The protocol: as §1, §2, §3
Background: Broth dilution looks for growth in wells or tubes with falling amounts of substance.

The test system of assay [3] is Streptococcus pneumoniae ATCC 49619. The experiment in a line: In vitro antibacterial activity (MIC), microdilution broth method (NCCLS), strain E. The following applies: ATCC49619, 35° C., 16-20 hours. The method, then:
as §1, §2, §3

Assay [4] concerns Staphylococcus aureus OC4172. In words: In vitro antibacterial activity (MIC), microdilution broth method (NCCLS), strain A. The following applies: cation adjusted Mueller-Hinton broth, 35° C., 16-20 hours. The protocol:
as §1, §2, §3

The test system of assay [5] is strain C, fluoroquinolone-resistant clinical isolate of Streptococcus pneumoniae. The experiment in a line: In vitro antibacterial activity (MIC), microdilution broth method (NCCLS), strain C. The following applies: read-out: In vitro Antibacterial Activity MIC, C. The protocol: as §1, §2, §3

Usually MIC stands for the lowest concentration found to suppress growth. As for `O=C(O)c1cn(-c2ccc(F)cc2F)c2nc(N3CC4ON=C(CO)C4C3)c(F)cc2c1=O` (centres unmarked) [ID No. 107, 1-(2,4-Difluoro-phenyl)-6-fluoro-7-(3-hydroxymethyl-3a,4,6,6a-tetrahydro-pyrrolo[3,4-d]isoxazol-5-yl)-4-oxo-1,4-dihydro-[1,8]naphthyridine-3-carboxylic acid], the MIC in assay [1] is > 16 µg/mL; in assay [2], > 16 µg/mL; in assay [3], 2 µg/mL (≈ 4.34 µM); in assay [4], 0.12 µg/mL (≈ 0.261 µM); in assay [5] it was > 16 µg/mL.
Turning to `O=C(O)c1cn(-c2ccc(F)cc2F)c2nc(N3CC4ON=C(c5ccc(Cl)cc5)C4C3)c(F)cc2c1=O` (centres unmarked) [ID No. 101, 7-[3-(4-Chloro-phenyl)-3a,4,6,6a-tetrahydro-pyrrolo[3,4-d]isoxazol-5-yl]-1-(2,4-difluoro-phenyl)-6-fluoro-4-oxo-1,4-dihydro-[1,8]naphthyridine-3-carboxylic acid], the MIC stood at 4 µg/mL (≈ 7.4 µM) in assay [1]; 1 µg/mL (≈ 1.85 µM) in assay [2]; 1 µg/mL (≈ 1.85 µM) in assay [3]; 0.06 µg/mL (≈ 0.111 µM) in assay [4]; 2 µg/mL (≈ 3.7 µM) in assay [5].
Take `O=C(O)c1cn(-c2ccc(F)cc2F)c2nc(N3CC4ON=C(c5ccccn5)C4C3)c(F)cc2c1=O` (centres unmarked) [ID No. 104, 1-(2,4-Difluoro-phenyl)-6-fluoro-4-oxo-7-(3-pyridin-2-yl-3a,4,6,6a-tetrahydro-pyrrolo[3,4-d]isoxazol-5-yl)-1,4-dihydro-[1,8]naphthyridine-3-carboxylic acid]: the MIC in assay [1] turned out to be 4 µg/mL (≈ 7.88 µM); in assay [2], 0.5 µg/mL (≈ 0.985 µM); in assay [3] it was 1 µg/mL (≈ 1.97 µM); in assay [4], 0.06 µg/mL (≈ 0.118 µM); in assay [5], 2 µg/mL (≈ 3.94 µM).
For `CCOC(=O)C1=NOC2CN(c3c(F)cc4c(=O)c(C(=O)O)cn(C5CC5)c4c3OC)CC12` (stereo not drawn) [ID No. 124, 7-[cis-3-(3-Ethoxycarbonyl)-3a,4,6,6a-tetrahydropyrrolo[3,4-d]isoxazol-5-yl]-1-cyclopropyl-8-methoxy-6-fluoro-4-oxo-1,4-dihydroquinoline-3-carboxylic acid], in that order: > 16 µg/mL, > 16 µg/mL, 8 µg/mL (≈ 17.4 µM), 0.25 µg/mL (≈ 0.544 µM) and > 16 µg/mL.
For `COc1ccc(C2=NOC3CN(c4cc5c(cc4F)c(=O)c(C(=O)O)cn5C4CC4)CC23)cn1` (centres unmarked) [ID No. 134, 1-Cyclopropyl-6-fluoro-7-[3-(6-methoxy-pyridin-3-yl)-3a,4,6,6a-tetrahydro-pyrrolo[3,4-d]isoxazol-5-yl]-4-oxo-1,4-dihydro-quinoline-3-carboxylic acid], in that order: 8 µg/mL (≈ 17.2 µM), 16 µg/mL (≈ 34.4 µM), 2 µg/mL (≈ 4.31 µM), 0.12 µg/mL (≈ 0.258 µM) and > 16 µg/mL.
For `CCOC(=O)C1=NOC2CN(c3c(F)cc4c(=O)c(C(=O)O)cn5c4c3OC[C@@H]5C)CC12` (stereo partly drawn) [ID No. 131, 7-[cis-3-(ethoxycarbonyl)-3a,4,6,6a-tetrahydropyrrolo[3,4-d]isoxazol-5-yl]S-(−)-9,10-difluoro-2,3-dihydro-3-methyl-7-oxo-7H-pyrido-[1,2,3-de][1,4]-benzoxazine-6-carboxylic acid], the minimal inhibitory concentration (MIC) is > 16 µg/mL in assay [1]; > 16 µg/mL in assay [2]; 16 µg/mL (≈ 35.9 µM) in assay [3]; 1 µg/mL (≈ 2.25 µM) in assay [4]; > 16 µg/mL in assay [5].
For the compound `O=C(O)c1cn(-c2ccc(F)cc2F)c2nc(N3CC4ON=C(c5cccnc5)C4C3)c(F)cc2c1=O` (centres unmarked) [ID No. 105, 1-(2,4-Difluoro-phenyl)-6-fluoro-4-oxo-7-(3-pyridin-3-yl-3a,4,6,6a-tetrahydro-pyrrolo[3,4-d]isoxazol-5-yl)-1,4-dihydro-[1,8]naphthyridine-3-carboxylic acid], the MIC worked out at 2 µg/mL (≈ 3.94 µM) in assay [1]; 0.5 µg/mL (≈ 0.985 µM) in assay [2]; 1 µg/mL (≈ 1.97 µM) in assay [3]; 0.06 µg/mL (≈ 0.118 µM) in assay [4]; 2 µg/mL (≈ 3.94 µM) in assay [5].
On to `NCC1=NOC2CN(c3nc4c(cc3F)c(=O)c(C(=O)O)cn4C3CC3)CC12` (centres unmarked) [ID No. 201, 7-(3-Aminomethyl-3a,4,6,6a-tetrahydro-pyrrolo[3,4-d]isoxazol-5-yl)-1-cyclopropyl-6-fluoro-4-oxo-1,4-dihydro-[1,8]naphthyridine-3-carboxylic acid], for which the minimum inhibitory concentration (MIC) in assay [1] is > 16 µg/mL; in assay [2], > 16 µg/mL; in assay [3] it was 4 µg/mL (≈ 10.3 µM); in assay [4], 0.5 µg/mL (≈ 1.29 µM); in assay [5], > 16 µg/mL.
For `O=C(O)c1cn(C2CC2)c2cc(N3CC4ON=C(c5ccccn5)C4C3)c(F)cc2c1=O` (centres unmarked) [ID No. 135, 1-Cyclopropyl-6-fluoro-7-[3-(pyridin-2-yl)-3a,4,6,6a-tetrahydro-pyrrolo[3,4-d]isoxazol-5-yl]-4-oxo-1,4-dihydro-quinoline-3-carboxylic acid], the minimal inhibitory concentration (MIC) amounted to 4 µg/mL (≈ 9.21 µM) in assay [1]; 8 µg/mL (≈ 18.4 µM) in assay [2]; 1 µg/mL (≈ 2.3 µM) in assay [3]; 0.03 µg/mL (≈ 0.0691 µM) in assay [4]; 2 µg/mL (≈ 4.6 µM) in assay [5].
As to `CCOC(=O)C1=NOC2CN(c3nc4c(cc3F)c(=O)c(C(=O)O)cn4-c3ccc(F)cc3F)CC12` (centres unmarked) [ID No. 106, 1-(2,4-Difluoro-phenyl)-7-(3-ethoxycarbonyl-3a,4,6,6a-tetrahydro-pyrrolo[3,4-d]isoxazol-5-yl)-6-fluoro-4-oxo-1,4-dihydro-[1,8]naphthyridine-3-carboxylic acid], the MIC is > 16 µg/mL in assay [1]; > 16 µg/mL in assay [2]; 8 µg/mL (≈ 15.9 µM) in assay [3]; 0.12 µg/mL (≈ 0.239 µM) in assay [4]; > 16 µg/mL in assay [5].
In the case of `COc1c(N2C[C@@H]3ON=C(c4ccccn4)[C@@H]3C2)c(F)cc2c(=O)c(C(=O)O)cn(C3CC3)c12` (relative stereo) [ID No. 122, 7-[cis-3-(2-pyridyl)-3a,4,6,6a-tetrahydropyrrolo[3,4-d]isoxazol-5-yl]-1-cyclopropyl-8-methoxy-6-fluoro-4-oxo-1,4-dihydroquinoline-3-carboxylic acid], the MIC was 2 µg/mL (≈ 4.31 µM) in assay [1]; 16 µg/mL (≈ 34.4 µM) in assay [2]; 1 µg/mL (≈ 2.15 µM) in assay [3]; < 0.12 µg/mL in assay [4]; 16 µg/mL (≈ 34.4 µM) in assay [5].
Take `O=C(O)c1cn(C2CC2)c2cc(N3CC4ON=C(c5cccnc5)C4C3)c(F)cc2c1=O` (centres unmarked) [ID No. 136, 1-Cyclopropyl-6-fluoro-7-[3-(pyridin-3-yl)-3a,4,6,6a-tetrahydro-pyrrolo[3,4-d]isoxazol-5-yl]-4-oxo-1,4-dihydro-quinoline-3-carboxylic acid]: the MIC in assay [1] turned out to be 8 µg/mL (≈ 18.4 µM); in assay [2], 8 µg/mL (≈ 18.4 µM); in assay [3], 1 µg/mL (≈ 2.3 µM); in assay [4] it was 0.06 µg/mL (≈ 0.138 µM); in assay [5], 4 µg/mL (≈ 9.21 µM).
`COc1c(N2C[C@@H]3ON=C(c4cccnc4)[C@@H]3C2)c(F)cc2c(=O)c(C(=O)O)cn(C3CC3)c12` (relative stereo) [ID No. 123, 7-[cis-3-(3-Pyridyl)-3a,4,6,6a-tetrahydropyrrolo[3,4-d]isoxazol-5-yl]-1-cyclopropyl-8-methoxy-6-fluoro-4-oxo-1,4-dihydroquinoline-3-carboxylic acid]: the minimum inhibitory concentration (MIC) in assay [1] was 2 µg/mL (≈ 4.31 µM); in assay [2], 8 µg/mL (≈ 17.2 µM); in assay [3], 0.5 µg/mL (≈ 1.08 µM); in assay [4] it was 0.06 µg/mL (≈ 0.129 µM); in assay [5] it was 8 µg/mL (≈ 17.2 µM).
Take `O=C(O)c1cn(C2CC2)c2nc(N3CC4ON=C(CO)C4C3)c(F)cc2c1=O` (centres unmarked) [ID No. 117, 1-Cyclopropyl-6-fluoro-7-(3-hydroxymethyl-3a,4,6,6a-tetrahydro-pyrrolo[3,4-d]isoxazol-5-yl)-4-oxo-1,4-dihydro-[1,8]naphthyridine-3-carboxylic acid]: the MIC in assay [1] was 16 µg/mL (≈ 41.2 µM); in assay [2], 16 µg/mL (≈ 41.2 µM); in assay [3], 8 µg/mL (≈ 20.6 µM); in assay [4], 0.5 µg/mL (≈ 1.29 µM); in assay [5] it was 16 µg/mL (≈ 41.2 µM).
Take `COc1ccc(C2=NOC3CN(c4nc5c(cc4F)c(=O)c(C(=O)O)cn5C4CC4)CC23)cn1` (centres unmarked) [ID No. 111, 1-Cyclopropyl-6-fluoro-7-[3-(6-methoxypyridin-3-yl)-3a,4,6,6a-tetrahydro-pyrrolo[3,4-d]isoxazol-5-yl]-4-oxo-1,4-dihydro-[1,8]naphthyridine-3-carboxylic acid]: the MIC in assay [1] worked out at 2 µg/mL (≈ 4.3 µM); in assay [2] it was 8 µg/mL (≈ 17.2 µM); in assay [3], 0.5 µg/mL (≈ 1.07 µM); in assay [4] it was 0.03 µg/mL (≈ 0.0645 µM); in assay [5] it was 4 µg/mL (≈ 8.59 µM).
In the same order, the values of `O=C(O)c1cn(C2CC2)c2nc(N3CC4ON=C(c5ccccn5)C4C3)c(F)cc2c1=O` (centres unmarked) [ID No. 113, 1-Cyclopropyl-6-fluoro-4-oxo-7-(3-pyridin-2-yl-3a,4,6,6a-tetrahydro-pyrrolo[3,4-d]isoxazol-5-yl)-1,4-dihydro-[1,8]naphthyridine-3-carboxylic acid] are 4 µg/mL (≈ 9.19 µM), 16 µg/mL (≈ 36.7 µM), 1 µg/mL (≈ 2.3 µM), 0.06 µg/mL (≈ 0.138 µM) and 2 µg/mL (≈ 4.59 µM).
